The text below walks through data of ChEMBL document CHEMBL5608215, “Development of amphipathic derivatives of thymol and carvacrol as potent broad-spectrum antibacterial agents” (Eur J Med Chem, 2024).

What all share (type): functional
In assay [1] the test system is Staphylococcus aureus. As to the kind of experiment: Antibacterial activity against Staphylococcus aureus ATCC29213 by CLSI based serial dilution method.
Another assay has as its system Enterococcus faecalis. As to the kind of experiment: Antibacterial activity against Enterococcus faecalis ATCC29212 by CLSI based serial dilution method.
In another assay the test system is Escherichia coli. As to the kind of experiment: Antibacterial activity against Escherichia coli ATCC25922 by CLSI based serial dilution method.
The subject of a further assay is Enterococcus. As to the kind of experiment: Antibacterial activity against vancomycin-resistant Enterococcus ATCC51299 by CLSI based serial dilution method.
Assay [2] has as its system Staphylococcus aureus. As to the kind of experiment: Antibacterial activity against methicillin-resistant Staphylococcus aureus 21-5 by CLSI based serial dilution method.
Another assay has as its system Pseudomonas aeruginosa. As to the kind of experiment: Antibacterial activity against Pseudomonas aeruginosa ATCC27853 by CLSI based serial dilution method.

≈ marks a conversion by molar mass, not a printed value.

As to `CCCCCCNC(=O)C[N+](C)(C)CCCCOc1cc(C(C)C)ccc1C.[Br-]`, the MIC (commonly the least concentration at which growth counts as inhibited) against Staphylococcus aureus [1] is 2 µg/mL; against Enterococcus faecalis it was 4 µg/mL; in the assay with Escherichia coli, 16 µg/mL; in the assay with Enterococcus, 8 µg/mL; in the assay with Staphylococcus aureus [2] it was 8 µg/mL; in the assay on Pseudomonas aeruginosa, 32 µg/mL.

For the compound `Cc1ccc(C(C)C)cc1OCCCCC[N+](C)(C)CC(=O)N(C(C)C)C(C)C.[Br-]`, the MIC in the assay on Staphylococcus aureus [1] is 4 µg/mL; in the assay on Enterococcus faecalis it was 8 µg/mL; in the assay on Escherichia coli, 64 µg/mL; in the assay with Enterococcus it was 8 µg/mL; with Staphylococcus aureus [2], 8 µg/mL; against Pseudomonas aeruginosa, above 128 µg/mL.

Turning to `Cc1ccc(C(C)C)c(OCCCC[N+](C)(C)CC(=O)N(C(C)C)C(C)C)c1.[Br-]`, the MIC in the assay with Staphylococcus aureus [1] is 8 µg/mL; against Enterococcus faecalis, 16 µg/mL; against Escherichia coli, 128 µg/mL; against Enterococcus it was 32 µg/mL; against Staphylococcus aureus [2], 16 µg/mL; with Pseudomonas aeruginosa, above 128 µg/mL.

`Cc1ccc(C(C)C)cc1OCCC[N+](C)(C)CC(=O)N(C(C)C)C(C)C.[Br-]`: the MIC against Staphylococcus aureus [1] is 16 µg/mL; with Enterococcus faecalis, 32 µg/mL; against Escherichia coli it was 128 µg/mL; in the assay on Enterococcus, 32 µg/mL; with Staphylococcus aureus [2], 64 µg/mL; in the assay on Pseudomonas aeruginosa it was above 128 µg/mL.

For `Cc1ccc(C(C)C)c(OCCC[N+](C)(C)CC(=O)N2CCOCC2)c1.[Br-]`, the minimum inhibitory concentration (MIC) in the assay with Staphylococcus aureus [1] is above 128 µg/mL; against Enterococcus faecalis it was above 128 µg/mL; in the assay with Escherichia coli it was 128 µg/mL; against Enterococcus, above 128 µg/mL; against Staphylococcus aureus [2] it was above 128 µg/mL; in the assay with Pseudomonas aeruginosa it was above 128 µg/mL.

As for `CCCCN(CCCC)C(=O)C[N+](C)(C)CCCCOc1cc(C)ccc1C(C)C.[Br-]`, the MIC was 2 µg/mL in the assay with Staphylococcus aureus [1]; 8 µg/mL in the assay with Enterococcus faecalis; 128 µg/mL in the assay on Escherichia coli; 8 µg/mL with Enterococcus; 2 µg/mL with Staphylococcus aureus [2]; above 128 µg/mL in the assay on Pseudomonas aeruginosa.

For the compound `CCCCN(CCCC)C(=O)C[N+](C)(C)CCCOc1cc(C)ccc1C(C)C.[Br-]`, the minimal inhibitory concentration (MIC) against Staphylococcus aureus [1] is 8 µg/mL; against Enterococcus faecalis, 16 µg/mL; against Escherichia coli it was 128 µg/mL; in the assay with Enterococcus it was 32 µg/mL; in the assay with Staphylococcus aureus [2] it was 8 µg/mL; with Pseudomonas aeruginosa it was above 128 µg/mL.

In the case of `CCCCCCCNC(=O)C[N+](C)(C)CCCOc1cc(C(C)C)ccc1C.[Br-]`, the MIC against Staphylococcus aureus [1] is 2 µg/mL; against Enterococcus faecalis it was 2 µg/mL; in the assay with Escherichia coli, 8 µg/mL; against Enterococcus, 4 µg/mL; in the assay on Staphylococcus aureus [2], 16 µg/mL; in the assay on Pseudomonas aeruginosa it was 16 µg/mL.

As for `CC1(C)S[C@@H]2[C@H](NC(=O)[C@H](N)c3ccccc3)C(=O)N2[C@H]1C(=O)O` [AMPICILLIN], the MIC in the assay with Staphylococcus aureus [1] is 0.5 µg/mL (≈ 1.43 µM); against Enterococcus faecalis, 0.5 µg/mL (≈ 1.43 µM); against Escherichia coli, 4 µg/mL (≈ 11.4 µM); against Enterococcus, 16 µg/mL (≈ 45.8 µM); against Staphylococcus aureus [2] it was 64 µg/mL (≈ 183 µM); against Pseudomonas aeruginosa it was above 128 µg/mL.

On to `Cc1ccc(C(C)C)cc1OCCCC[N+](C)(C)CC(=O)N1CCSCC1.[Br-]`, for which the MIC is 32 µg/mL in the assay on Staphylococcus aureus [1]; 64 µg/mL against Enterococcus faecalis; 128 µg/mL against Escherichia coli; 128 µg/mL with Enterococcus; 64 µg/mL against Staphylococcus aureus [2]; above 128 µg/mL against Pseudomonas aeruginosa.

Take `CCCCCCN(CCCCCC)C(=O)C[N+](C)(C)CCCCOc1cc(C)ccc1C(C)C.[Br-]`: the MIC against Staphylococcus aureus [1], in the assay with Enterococcus faecalis, in the assay with Escherichia coli, in the assay with Enterococcus, in the assay with Staphylococcus aureus [2] and against Pseudomonas aeruginosa was above 128 µg/mL each time.

`CCCCCCNC(=O)C[N+](C)(C)CCCCOc1cc(C)ccc1C(C)C.[Br-]`: the MIC against Staphylococcus aureus [1] was 2 µg/mL; against Enterococcus faecalis it was 4 µg/mL; in the assay with Escherichia coli, 16 µg/mL; against Enterococcus, 8 µg/mL; against Staphylococcus aureus [2], 1 µg/mL; with Pseudomonas aeruginosa, 64 µg/mL.

As for `CCCCCNC(=O)C[N+](C)(C)CCCOc1cc(C)ccc1C(C)C.[Br-]`, the MIC against Staphylococcus aureus [1] is 8 µg/mL; against Enterococcus faecalis it was 16 µg/mL; in the assay on Escherichia coli it was 32 µg/mL; in the assay on Enterococcus, 32 µg/mL; with Staphylococcus aureus [2] it was 16 µg/mL; with Pseudomonas aeruginosa, above 128 µg/mL.

For the compound `Cc1ccc(C(C)C)c(O)c1` [THYMOL], the MIC is above 128 µg/mL in the assay on Staphylococcus aureus [1]; above 128 µg/mL with Enterococcus faecalis; 128 µg/mL (≈ 852 µM) against Escherichia coli; above 128 µg/mL against Enterococcus; above 128 µg/mL against Staphylococcus aureus [2]; above 128 µg/mL in the assay with Pseudomonas aeruginosa.

Turning to `Cc1ccc(C(C)C)cc1OCCCC[N+](C)(C)CC(=O)N(C(C)C)C(C)C.[Br-]`, the MIC against Staphylococcus aureus [1] was 8 µg/mL; against Enterococcus faecalis it was 16 µg/mL; against Escherichia coli it was 128 µg/mL; against Enterococcus, 32 µg/mL; with Staphylococcus aureus [2], 16 µg/mL; with Pseudomonas aeruginosa it was above 128 µg/mL.

On to `CCCCCCNC(=O)C[N+](C)(C)CCCCCOc1cc(C)ccc1C(C)C.[Br-]`, for which the MIC stood at 2 µg/mL in the assay on Staphylococcus aureus [1]; 2 µg/mL against Enterococcus faecalis; 8 µg/mL against Escherichia coli; 4 µg/mL in the assay on Enterococcus; 2 µg/mL against Staphylococcus aureus [2]; 32 µg/mL with Pseudomonas aeruginosa.

Turning to `CCCCCCCNC(=O)C[N+](C)(C)CCCCCOc1cc(C(C)C)ccc1C.[Br-]`, the MIC against Staphylococcus aureus [1] worked out at 1 µg/mL; with Enterococcus faecalis, 1 µg/mL; with Escherichia coli, 4 µg/mL; with Enterococcus, 2 µg/mL; against Staphylococcus aureus [2], 4 µg/mL; with Pseudomonas aeruginosa, 8 µg/mL.

As to `Cc1ccc(C(C)C)cc1OCCC[N+](C)(C)CC(=O)N1CCSCC1.[Br-]`, the MIC was 64 µg/mL in the assay on Staphylococcus aureus [1]; 64 µg/mL against Enterococcus faecalis; 128 µg/mL in the assay with Escherichia coli; above 128 µg/mL in the assay with Enterococcus; 128 µg/mL with Staphylococcus aureus [2]; above 128 µg/mL against Pseudomonas aeruginosa.

Take `CCCCCNC(=O)C[N+](C)(C)CCCOc1cc(C(C)C)ccc1C.[Br-]`: the MIC worked out at 8 µg/mL with Staphylococcus aureus [1]; 16 µg/mL in the assay on Enterococcus faecalis; 32 µg/mL with Escherichia coli; 32 µg/mL against Enterococcus; 32 µg/mL against Staphylococcus aureus [2]; 128 µg/mL with Pseudomonas aeruginosa.

With `CCCNC(=O)C[N+](C)(C)CCCCOc1cc(C)ccc1C(C)C.[Br-]`, the MIC against Staphylococcus aureus [1] is 64 µg/mL; with Enterococcus faecalis it was 128 µg/mL; in the assay on Escherichia coli it was above 128 µg/mL; against Enterococcus, above 128 µg/mL; with Staphylococcus aureus [2], 128 µg/mL; in the assay with Pseudomonas aeruginosa, above 128 µg/mL.

As for `CCCCCNC(=O)C[N+](C)(C)CCCCCOc1cc(C)ccc1C(C)C.[Br-]`, the MIC came to 8 µg/mL in the assay with Staphylococcus aureus [1]; 16 µg/mL in the assay on Enterococcus faecalis; 32 µg/mL in the assay on Escherichia coli; 16 µg/mL in the assay with Enterococcus; 4 µg/mL with Staphylococcus aureus [2]; 128 µg/mL against Pseudomonas aeruginosa.

Regarding `Cc1ccc(C(C)C)cc1OCCCCC[N+](C)(C)CC(=O)N1CCSCC1.[Br-]`, the MIC was 32 µg/mL in the assay on Staphylococcus aureus [1]; 32 µg/mL against Enterococcus faecalis; 128 µg/mL in the assay on Escherichia coli; 64 µg/mL with Enterococcus; 128 µg/mL against Staphylococcus aureus [2]; above 128 µg/mL against Pseudomonas aeruginosa.

As for `Cc1ccc(C(C)C)c(OCCCCC[N+](C)(C)CC(=O)N(CC(C)C)CC(C)C)c1.[Br-]`, the MIC in the assay with Staphylococcus aureus [1] came out at 2 µg/mL; against Enterococcus faecalis, 4 µg/mL; with Escherichia coli, 32 µg/mL; with Enterococcus, 8 µg/mL; in the assay with Staphylococcus aureus [2], 2 µg/mL; against Pseudomonas aeruginosa, 128 µg/mL.

Regarding `Cc1ccc(C(C)C)cc1OCCCCC[N+](C)(C)CC(=O)N(CC(C)C)CC(C)C.[Br-]`, the MIC against Staphylococcus aureus [1] came out at 2 µg/mL; against Enterococcus faecalis, 4 µg/mL; with Escherichia coli, 32 µg/mL; in the assay with Enterococcus, 64 µg/mL; in the assay on Staphylococcus aureus [2], 4 µg/mL; against Pseudomonas aeruginosa it was 64 µg/mL.

In the case of `CCCNC(=O)C[N+](C)(C)CCCCCOc1cc(C(C)C)ccc1C.[Br-]`, the MIC in the assay with Staphylococcus aureus [1] is 32 µg/mL; with Enterococcus faecalis it was 64 µg/mL; against Escherichia coli, 128 µg/mL; against Enterococcus, 128 µg/mL; in the assay with Staphylococcus aureus [2], 128 µg/mL; against Pseudomonas aeruginosa it was above 128 µg/mL.

Take `Cc1ccc(C(C)C)c(OCCCCC[N+](C)(C)CC(=O)N2CCOCC2)c1.[Br-]`: the MIC in the assay on Staphylococcus aureus [1] was 128 µg/mL; with Enterococcus faecalis, 128 µg/mL; in the assay on Escherichia coli it was above 128 µg/mL; against Enterococcus, above 128 µg/mL; in the assay with Staphylococcus aureus [2] it was above 128 µg/mL; in the assay on Pseudomonas aeruginosa, above 128 µg/mL.

As to `CCCCCCNC(=O)C[N+](C)(C)CCCOc1cc(C)ccc1C(C)C.[Br-]`, the MIC stood at 4 µg/mL in the assay on Staphylococcus aureus [1]; 4 µg/mL against Enterococcus faecalis; 16 µg/mL with Escherichia coli; 8 µg/mL in the assay with Enterococcus; 4 µg/mL in the assay with Staphylococcus aureus [2]; 32 µg/mL against Pseudomonas aeruginosa.

In the case of `CCCN(CCC)C(=O)C[N+](C)(C)CCCCCOc1cc(C(C)C)ccc1C.[Br-]`, the MIC is 8 µg/mL with Staphylococcus aureus [1]; 8 µg/mL against Enterococcus faecalis; 64 µg/mL against Escherichia coli; 16 µg/mL against Enterococcus; 16 µg/mL in the assay with Staphylococcus aureus [2]; above 128 µg/mL in the assay on Pseudomonas aeruginosa.

As to `CCCCNC(=O)C[N+](C)(C)CCCOc1cc(C)ccc1C(C)C.[Br-]`, the MIC against Staphylococcus aureus [1] was 32 µg/mL; against Enterococcus faecalis, 64 µg/mL; with Escherichia coli, 128 µg/mL; against Enterococcus it was 128 µg/mL; in the assay on Staphylococcus aureus [2], 32 µg/mL; with Pseudomonas aeruginosa, above 128 µg/mL.

On to `Cc1ccc(C(C)C)c(OCCCC[N+](C)(C)CC(=O)N2CCOCC2)c1.[Br-]`, for which the MIC in the assay on Staphylococcus aureus [1], against Enterococcus faecalis, with Escherichia coli, against Enterococcus, with Staphylococcus aureus [2] and against Pseudomonas aeruginosa was above 128 µg/mL throughout.

For the compound `Cc1ccc(C(C)C)cc1OCCCC[N+](C)(C)CC(=O)N(CC(C)C)CC(C)C.[Br-]`, the MIC is 4 µg/mL against Staphylococcus aureus [1]; 8 µg/mL with Enterococcus faecalis; 64 µg/mL with Escherichia coli; 8 µg/mL against Enterococcus; 4 µg/mL with Staphylococcus aureus [2]; above 128 µg/mL against Pseudomonas aeruginosa.

Turning to `CCCNC(=O)C[N+](C)(C)CCCCOc1cc(C(C)C)ccc1C.[Br-]`, the MIC was 64 µg/mL in the assay on Staphylococcus aureus [1]; 64 µg/mL against Enterococcus faecalis; 128 µg/mL against Escherichia coli; above 128 µg/mL against Enterococcus; above 128 µg/mL against Staphylococcus aureus [2]; above 128 µg/mL in the assay on Pseudomonas aeruginosa.
